# Laboratory results published in patent US8778961B2, “O-methylated rapamycin derivatives for alleviation and inhibition of lymphoproliferative disorders” (The Trustees of the University of Pennsylvania, priority 2000, dated 2014).
# Legend:
# [1] = toxicity study in BALB/c and SCID mice; assay type: in vivo; conditions: 5 milligrams per kilogram body weight per day
# Excerpt: Five- to seven-week-old immunodeficient SCID mice (C.B-17 and ICR) were purchased from Taconic (Germantown, N.J.) and housed at the University of Pennsylvania Animal Facility under pathogen-free conditions in a laminar air flow unit and supplied with sterile food and water. In the toxicity studies, 5-7 week old inbred BALB/c mice (Taconic) were used in addition to the SCID mice.
# Mice were sacrificed by exposure to FORANE™ (isoflurane, Ohmeda, Liberty Place, N.J.) on day 29 in the drug toxicity study, on day 40-55 in the tumor growth inhibition study or when tumors achieved approximately 2 centimeter diameter, or when ulceration of the skin, signs of severe respiratory distress, weakness, or lethargy appeared. Complete autopsy was performed on all mice at the end of the study regardless of their appearance. Tumor and internal organs (spleen, liver, lung, heart, kidney, small and large intestines, femoral bone for bone marrow) were fixed in 10% (v/v) formalin, embedded in paraffin, cut into […] sections, transferred to glass slides, and stained with hematoxylin and eosin. Representative tumor fragments were stained immunohistochemically by standard streptavidin-biotin complex technique using commercially available reagents (Research Genetics, Huntsville, Ala.), antibodies: anti-CD20 (L-26) and LMP-1 (both from DAKO, Carpinteria, Calif.) and Ki67 (mib1; Immunotech, Westbrook, Me.). EBV-encoded RNA (EBER-1), and detected using commercially available reagents.
# Previous studies have shown that a minimal effective dose of SDZ RAD in rats was 5 milligrams per kilogram body weight per day and >5 milligrams per kilogram body weight per day in the in kidney and heart transplant model, respectively, when SDZ RAD was used as a single immunosuppressive agent (Schuurman et al., 1997, Transplantation 64:32-5; Schuler et al. 1997, Transplantation 64: 36-42). In order to determine if prolonged exposure to SDZ RAD is non-toxic for mice, both immunocompetent and immunodeficient, a cohort of normal BALB/c mice were treated with the above dose of SDZ RAD for 28 days. Ten treated and 5 control, untreated mice were used in this study. Later SCID mice which were transplanted with human PTLD-like lymphomas and treated with SDZ RAD for up to 55 days were evaluated. Seven treated and 5 control untreated SCID mice were evaluated in this experiment. After receiving the final dose of the drug, all mice were sacrificed and the following organs were harvested for histopathologic evaluation to investigate for possible toxic effects: liver, spleen, kidney, small intestine, large intestine, heart, lung, and femoral bone for bone marrow.
# [2] = test system: PTLD-like EBV+ B cell lines; test: in vitro cell growth inhibition (3H-thymidine incorporation); assay type: cell-based, human; conditions: for degree of inhibition of growth: 0-10 nanomolar
# Excerpt: Most cell lines used in this study were lymphoblastoid B-cell lines obtained by in vitro infection with EBV of peripheral blood mononuclear cells (PBMC). Cell lines A1 and A2D6 were obtained from normal, healthy individuals. Cell lines 15A and 20A were obtained from two different patients with a low grade B-cell lymphoma with monoclonal cold agglutinins (Silberstein et al., 1991, Blood 78:2372-2386). Both lines secreted cold agglutinins with the same specificity as the cold agglutinins found in the patient's serum (Silberstein et al., 1991, Blood 78:2372-2386). […] LCL B-cell line was obtained from a patient with a progressive cutaneous T-cell lymphoproliferative disorder (Zhang et al., 1996, Proc. Natl. Acad. Sci. USA 93:9148-9153). BC-1 is derived from a peritoneal effusion B-cell lymphoma (PEL) and, in addition to EBV, harbors […] virus (Cesarman et al., 1995, Blood 86:2708-2714). The other 3 cell lines used as controls in the in vitro growth inhibition assay were HTLV-I (+) T-cell lines ATL-2 (Maeda et al., 1985, Exp. Med. 162:2169-2174); C10MJ2 (Popovic et al., 1983, Science 219: 856-859); and HUT102B (Poiescz, 1980, Proc. Natl. Acad. Sci. USA 77:7415-7419; Bunn, et al, 1996, J. Cell. Biochem. Suppl 24:12-23) derived from patients with adult T-cell leukemia/lymphoma (ATLL). They were shown by us to be non-responsive to SDZ RAD and the related, immunosuppressive macrolide, rapamycin (Zhang et al., 1999, Leukemia Res. 23:373-384). All cell lines were maintained in humidified incubators at 37° C. in an atmosphere containing 5% CO2 in standard medium: RPMI Medium 1640 (Gibco BRL, Grand Island, N.Y.) supplemented with 10% (v/v) heat inactivated fetal bovine serum (BioWhittaker, Walkersville, Md.), 1% penicillin/streptomycin/fungizone mixture (Gibco BRL), and 2 millimolar L-glutamine (Gibco BRL).
# An assay to assess inhibition of in vitro cell growth by SDZ RAD was performed as described (Zhang et al., 1999, Leukemia Res. 23:373-384; Zhang et al., 1996, Proc. Natl. Acad. Sci. USA 93:9148-9153). Briefly, cell lines were cultured for 32 hours in triplicate at 2×10^4 cells per well in the presence of various concentrations of SDZ RAD (Novartis Pharma, Basel). After pulsing the cells with 0.5 microcurie ^3H-thymidine (New England Nuclear, Boston, Mass.) and culturing the cells for the next 18 hours, isotope incorporation into the cells was measured. The results of proliferation assays were expressed as the mean radioactivity of triplicate cultures. Standard deviation within the triplicates was <15%.
# In order to determine whether SDZ RAD can inhibit proliferation of cells mimicking PTLDs, 6 different EBV^+ B cell lines were cultured in vitro in the presence of the drug at various concentrations. […]
# [3] = BALB/c 28 days, SCID up to 55 days
compound,measurement,setting,value
"CO[C@H]1C[C@@H]2CC[C@@H](C)[C@@](O)(O2)C(=O)C(=O)N2CCCC[C@H]2C(=O)O[C@H]([C@H](C)C[C@@H]2CC[C@@H](OCCO)[C@H](OC)C2)CC(=O)[C@H](C)/C=C(\C)[C@@H](O)[C@@H](OC)C(=O)[C@H](C)C[C@H](C)/C=C/C=C/C=C/1C [SDZ RAD, 40-O-(2-hydroxy)ethyl-rapamycin]",growth and weight gain vs control group,[1]; [3],the same
same,visible signs of drug toxicity,[1]; [3],None of the treated mice
same,microscopic evaluation of organs,"[1]; liver, spleen, kidney, intestines, heart, lung, bone marrow",no pathologic changes
same,adverse effect of prolonged exposure,[1]; regardless of immune status,no adverse effect
same,inhibition of growth,"[2]; 1 nanomolar, all EBV+ B cell lines, 32 hours culture then 18 hours 3H-thymidine pulse",60-95%
same,sensitivity of cell lines to the drug,[2]; all PTLD-like EBV+ B cell lines,very sensitive
same,degree of inhibition of growth,[2]; cell lines obtained from normal B cells,90-100%
same,degree of inhibition of growth,"[2]; lines derived from patients with B-cell lymphomas (15A, 20A and BC-1)",80-90%
